# In article PMC10458307, “New Scaffolds of Proteasome Inhibitors: Boosting Anticancer Potential by Exploiting the Synergy of In Silico and In Vitro Methodologies” (Pharmaceuticals, 2023):
# Several values for one entry are separate records, joined by “and”; a condition that tells them apart may be missing. Equal values may be shown once.
# Columns and labels:
# [1] = target: T1, 20S proteasome in HT-29 cell lysates, C-L activity (Homo sapiens, UniProt P28072); assay: Proteasome inhibition assay in cell lysates, HT-29, C-L; conditions: for inhibition at 10 µM: read-out: percentage of proteasome inhibition, C-L, cell lysates HT-29, at 10 µM; for inhibition at 100 µM: read-out: percentage of proteasome inhibition, C-L, cell lysates HT-29, at 100 µM
# T1 sequence (P28072 35-239 limits assumed): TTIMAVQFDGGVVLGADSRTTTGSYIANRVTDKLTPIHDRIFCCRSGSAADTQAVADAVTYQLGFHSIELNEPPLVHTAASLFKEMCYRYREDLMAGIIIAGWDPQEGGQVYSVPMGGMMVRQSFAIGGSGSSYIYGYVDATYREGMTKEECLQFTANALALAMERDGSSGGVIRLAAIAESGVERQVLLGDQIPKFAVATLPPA
# T1 sequence (Q99436 44-277 partner): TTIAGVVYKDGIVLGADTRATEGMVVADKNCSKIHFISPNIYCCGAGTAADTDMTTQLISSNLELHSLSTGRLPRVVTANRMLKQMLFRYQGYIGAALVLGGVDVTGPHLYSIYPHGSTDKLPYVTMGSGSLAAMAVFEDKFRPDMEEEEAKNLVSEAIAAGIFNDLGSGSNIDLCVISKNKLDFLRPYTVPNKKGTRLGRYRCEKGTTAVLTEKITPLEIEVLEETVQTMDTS
# Procedure: (§1) Cells were obtained from several cultured cell lines: Jurkat, K562, HT-29, and HCT116. Pellets with 20 × 10^6 cells were prepared and washed with cold sterile phosphate buffered saline (PBS), 1×, pH 7.4 (Gibco, Thermo Fisher Scientific, Paisley, UK). […] Cells were resuspended in buffer containing 50 mM TRIS-HCl pH 7.4 (Nzytech, Lisboa, Portugal), 5 mM MgCl2 (≥98% purity, Merck, Hamburg, Germany), 1 mM DTT (Merck, Hamburg, Germany), 2 mM ATP (≥98% purity, Enzo Life Sciences Inc., Farmingdale, NY, USA), and 250 mM saccharose (Merck, Hamburg, Germany). Glass beads (Merck, Hamburg, Germany) equivalent to the volume of the cell suspension were added, and the mixture was vortexed for 2 min at 4 °C. Beads and cell debris were removed using 5 min centrifugation at 1000× g and 4 °C, followed by 20 min of centrifugation at 10,000× g at 4 °C. Cell lysates containing proteasomes were resuspended in “activity buffer” [50 mM TRIS-HCl (pH 7.4), 5 mM MgCl2, 1 mM DTT, 2 mM ATP (≥98% purity, Enzo Life Sciences Inc., Farmingdale, NY, USA), and 500 µM EDTA (≥98% purity, Merck, Hamburg, Germany)]. Protein concentration was determined using the Pierce™ BCA protocol (Thermo Fisher Scientific, Rockford, IL, USA). […] DMSO was added in an equal volume as used for the untreated compounds as a way to assess/control its influence in the assay. Untreated cells were used as control. In each well of a 96-well plate, 25 µL of lysate were seeded in duplicate with 25 µL of the compound to test; in the control, 25 µL of activity buffer were added to the 25 µL of lysate. A blank (50 µL of activity buffer) was added to the wells in quadruplicate. Cell lysates, pre-treated or not with different concentrations of the test compounds, were incubated for 30 min at 37 °C. […] Stock solutions (10 mM) of each substrate were prepared in DMSO, diluted in activity buffer, and 50 µL were added to all wells (final concentration of each substrate = 100 µM), followed by an incubation at 37 °C for 60 min. Samples fluorescence was measured at an excitation wavelength of 360 nm and emission of 465 nm; the fluorescence measures were performed using the GloMax-Multi + Detection System (Promega Corp., Madison, WI, USA). Activity was evaluated in fluorescence units, after being converted to percentage of proteasome inhibition and, whenever possible, expressed as IC50 by plotting the inhibition data of each compound at different concentrations against the log of the concentration of the inhibitor, using the GraphPad Prism software version 7. At least eight different concentrations of the test compounds were used.
# [2] = Cell viability, MTT assay, HT-29; format: cell-based, human; conditions: human, HT-29 colorectal carcinoma cells, read-out: percentage of cell viability, MTT, HT-29; for viability at 72 h, 10 µM: at 10 µM; for viability at 72 h, 100 µM: at 100 µM
# Procedure: Whenever possible, additional concentrations were tested and IC50 values were determined.
# Human leukemia Jurkat E6.1 T-cell line and K562-cell line were originally obtained from ATCC Collections (Manassas, VA, USA); human HT-29 and HCT116 colorectal carcinoma-cell lines were obtained from ECACC (Porton Down, Porton, UK). Cells were passaged for less than 6 months after and routinely tested for mycoplasma contamination using Mycoalert detection kit (Lonza, Basel, Switzerland). Jurkat, K562, and HT-29 cells were maintained in Roswell Park Memorial Institute (RPMI) 1640 with GlutaMAX™, supplemented with 1% antibiotic mixture (100 µg/mL streptomycin and 100 U/mL penicillin) and 10% heat-inactivated foetal bovine serum (FBS) (all from Gibco, Thermo Fisher Scientific, Paisley, UK). HCT116 cells were maintained in Dulbecco’s Modified Eagle Medium (DMEM) with GlutaMAX™, supplemented with 1% antibiotic mixture (100 µg/mL streptomycin and 100 U/mL penicillin) and 10% heat-inactivated FBS (all from Gibco, Thermo Fisher Scientific, Paisley, UK). Incubation was performed at 37 °C in a 5% CO2 atmosphere. Cells were routinely passaged every 2 or 3 days at 70–90% confluence; TrypLE Express (Gibco, Thermo Fisher Scientific, Paisley, UK) was used as dissociation agent for adherent cells. Trypan blue (Gibco, Thermo Fisher Scientific, Paisley, UK) was used to assess cell viability using the dye exclusion test.
# To assess cell viability, the MTT assay was performed. Jurkat/K562/HT-29/HCT116 cell lines were seeded in triplicate (10,000 cells/well) in 96-well plates with 50 µL of complete medium and incubated at 37 °C, 5% CO2 for 24 h to allow the cells to adhere to the plate (in the case of adherent cells). […] Untreated cells seeded in triplicate were used as control. The blank was performed in triplicate with 100 µL of culture medium. The cells were incubated with the compounds, in triplicate, in 100 µL of total volume, at 37 °C, 5% CO2 for 72 h. […] In suspension cells (Jurkat), 25 µL of MTT were directly added to each well and, after 3 h 30 m of incubation, 100 µL of DMSO were added to solubilize the formazan crystals; in adherent cells (HT-29 and HCT116), the culture medium was removed, 25 µL of MTT were added to each well and, after 3 h 30 m of incubation, upon MTT removal, 100 µL of DMSO were added to solubilize the formazan crystals. After 15 min, the samples absorbance was measured at 570 nm and the percentage of cell viability was determined.
# [3] = target: T2, 20S proteasome in HCT116 cell lysates, CT-L activity (Homo sapiens, UniProt P28074); assay: Proteasome inhibition assay in cell lysates, HCT116, CT-L; conditions: for percentage of proteasome inhibition, CT-L, cell lysates HCT116: at 100 µM; for percentage of proteasome inhibition, CT-L, cell lysates HCT116 / inhibition at 100 µM: Table 2 legend: bortezomib 10 µM; for inhibition at 100 µM: read-out: percentage of proteasome inhibition, CT-L, cell lysates HCT116, at 100 µM; for inhibition at 10 µM: read-out: percentage of proteasome inhibition, CT-L, cell lysates HCT-116, at 10 µM
# T2 sequence (P28074 60-263): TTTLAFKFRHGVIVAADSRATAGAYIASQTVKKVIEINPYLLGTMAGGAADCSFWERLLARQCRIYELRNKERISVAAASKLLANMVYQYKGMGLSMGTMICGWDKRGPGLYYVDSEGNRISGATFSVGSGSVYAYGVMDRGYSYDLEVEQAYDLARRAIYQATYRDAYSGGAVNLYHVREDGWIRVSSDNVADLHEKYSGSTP
# T2 sequence (P20618 29-241 partner): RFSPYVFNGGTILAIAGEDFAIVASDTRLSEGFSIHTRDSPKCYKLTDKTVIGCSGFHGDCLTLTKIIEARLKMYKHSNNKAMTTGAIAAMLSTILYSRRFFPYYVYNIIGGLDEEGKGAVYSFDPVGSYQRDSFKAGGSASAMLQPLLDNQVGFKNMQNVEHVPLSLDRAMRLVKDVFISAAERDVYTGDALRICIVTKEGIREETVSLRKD
# Procedure: as §1
# [4] = at 100 µM, Table 2 legend: bortezomib 10 µM
# [5] = Table 2 legend: bortezomib 10 µM
"percentage of proteasome inhibition, C-L, cell lysates HT-29 ([1]; at 10 µM) [%]","percentage of proteasome inhibition, C-L, cell lysates HT-29 [1, 4]","percentage of proteasome inhibition, CT-L, cell lysates HCT-116 ([3]; at 10 µM) [%]","percentage of proteasome inhibition, CT-L, cell lysates HCT116 [3]",IC50 [1] [µM],inhibition at 10 µM [1] [%],"inhibition at 100 µM [1, 5] [%]",IC50 [3] [µM],inhibition at 100 µM [3] [%],inhibition at 10 µM [3] [%],Compound,"viability at 72 h, 10 µM [2] [%]","viability at 72 h, 100 µM [2] [%]"
92.93,99.05% and 99%,97.94,99.14% and 99%,,,,,,,"CC(C)C[C@H](NC(=O)[C@H](Cc1ccccc1)NC(=O)c1cnccn1)B(O)O [Bortezomib, bortezomib, reference compound]",0,0
,76%,,90%,79.4,0,76,76.4,90.2,0,Cc1ccc2ccccc2c1CSc1ncnc2c1ncn2C1OC(CO)C(O)C1O (centres unmarked) [Compound 1],96.7,23.3
,69%,,74%,62.1,6.78,69.2,50.9,74.2,6.93,O=C1c2ccccc2C(=O)c2c(Nc3ccc(S(=O)(=O)N(CCO)CCO)cc3)ccc(O)c21 [Compound 2],79.9,65.4
,19%,,33%,,0,18.6,,33,0,Cc1ccc(/C(=N/NS(=O)(=O)c2ccc([N+](=O)[O-])cc2)Sc2cc(Cl)c(C)cc2S(N)(=O)=O)cc1 [Compound 3],100,100
,82%,,98%,35.2,0,82.1,35.7,98,22.1,"C#CCCN1CCN(c2ccc(-n3c(=O)ccc4cnc5ccc(-c6ccc(N)nc6)cc5c43)cc2C(F)(F)F)CC1 [Compound 4, 9-(6-Aminopyridin-3-yl)-1-(4-(4-(but-3-yn-1-yl)piperazin-1-yl)-3-(trifluoromethyl)phenyl)benzo[h][1,6]naphthyridin-2(1H)-one]",94.1,34.3
,29%,,67%,,0,29.3,95.9,66.9,0,"CC(C)c1nc(CN(C)C(=O)N[C@@H](CCN2CCOCC2)C(=O)N[C@H](CC[C@H](Cc2ccccc2)NC(=O)OCc2cncs2)Cc2ccccc2)cs1 [Compound 5, cobicistat, reference compound]",98.3,25.4
